From paper PMC3188562, “Hyperforin Inhibits Akt1 Kinase Activity and Promotes Caspase-Mediated Apoptosis Involving Bad and Noxa Activation in Human Myeloid Tumor Cells” (PLoS ONE, 2011) come the findings set out here.

For this experiment, the target named is Akt1 (Homo sapiens, UniProt P31749).

Molecules are shown by their SMILES.

Akt1, sequence (P31749 whole entry): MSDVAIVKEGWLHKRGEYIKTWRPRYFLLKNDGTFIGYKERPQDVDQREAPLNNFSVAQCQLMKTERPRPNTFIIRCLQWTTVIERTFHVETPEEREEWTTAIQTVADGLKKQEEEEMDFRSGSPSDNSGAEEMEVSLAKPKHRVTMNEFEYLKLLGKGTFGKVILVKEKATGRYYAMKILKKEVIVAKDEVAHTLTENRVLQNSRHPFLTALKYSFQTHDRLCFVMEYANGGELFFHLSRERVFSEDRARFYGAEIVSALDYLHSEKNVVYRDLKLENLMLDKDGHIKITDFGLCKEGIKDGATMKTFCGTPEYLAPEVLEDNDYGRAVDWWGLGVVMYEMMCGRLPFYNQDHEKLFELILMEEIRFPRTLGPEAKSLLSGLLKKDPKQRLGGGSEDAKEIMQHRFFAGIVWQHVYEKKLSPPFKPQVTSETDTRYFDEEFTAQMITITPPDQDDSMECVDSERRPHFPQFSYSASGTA

`CC(C)=CCCC1(C)C(CC=C(C)C)CC2(CC=C(C)C)C(=O)C(CC=C(C)C)=C(O)C1(C(=O)C(C)C)C2=O` (stereo not drawn) [HF, 5-hydroxy-6R-methyl-1R,3,7S-tris(3-methyl-2-butenyl)-5S-(2-methyl-1-oxopropyl)-6R-(4-methyl-3-pentenyl)-bicyclo[3.3.1]non-3-ene-2,9 dione]: half-maximal inhibition (IC50) required 2500 nM.
